The record followed here is US12528816B2, “Substituted imidazo [1,2-b] pyridazines and [1, 2, 4] triazolo [ 4,3-b] pyridazines as camkii inhibitors” (Cardurion Pharmaceuticals, INC., priority 2020, dated 2026).

For the assay, the target named is T1, human CaMKIIδ (Homo sapiens, UniProt Q13557).
T1 construct: Full-length, glutathione-S-transferase(GST)-tagged, human CaMKIIδ was purchased from Carna Biosciences; purchased Carna Biosciences (CaMKIIδ); Wako Pure Chemical Industries (calmodulin) 02-111
Kind of assay: Evaluation of in vitro CaMKII inhibitory activity (binding assay, TR-FRET). The settings on record: human CaMKIIδ, TR-FRET binding assay; class symbols A/B/C; read-out: Act (CaMKII inhibitory activity, binding assay). In short, it runs like this: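 Inhibitors, in eight concentrations of 4-fold dilution, were incubated 1 h at room temperature with a protein–fluorescent probe premix preformed 30 min on ice, containing calmodulin and terbium anti-GST antibody. Displacement read by TR-FRET in duplicate; IC50 by logistic fitting.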
In general terms: In TR-FRET formats the signal depends on donor and acceptor labels being close together.
Turning to `C[C@@H](Cn1cnnn1)Oc1cc(-c2ccn3ncc(-c4ccoc4)c3n2)ccc1F` [compound 19], the IC50 is less than 10 nM.

In the case of `C[C@@H](Cn1cnnn1)Oc1cc(-c2ccn3ncc(-c4cccnc4)c3n2)ccc1F` [compound 20], the IC50 is less than 10 nM.

As for `C[C@@H](Cn1cnnn1)Oc1cc(-c2ccn3ncc(-c4ccncc4)c3n2)ccc1F` [compound 21], the IC50 is less than 10 nM.

`C[C@@H](Cn1cnnn1)Oc1cc(-c2ccn3ncc(-c4cncnc4)c3n2)ccc1F` [compound 22]: the IC50 was less than 10 nM.

`C[C@@H](Cn1cnnn1)Oc1cc(-c2ccn3ncc(-c4cnn(C)c4)c3n2)ccc1F` [compound 23]: the IC50 was less than 10 nM.

Take `C[C@@H](Cn1cnnn1)Oc1cc(-c2ccn3ncc(-c4ccnn4C)c3n2)ccc1F` [compound 24]: the IC50 lay within 10 to 100 nM.

Take `C[C@@H](Cn1cnnn1)Oc1cc(-c2ccn3ncc(-c4ccn(C)n4)c3n2)ccc1F` [compound 25]: the IC50 was less than 10 nM.

As to `C[C@@H](Cn1cnnn1)Oc1cc(-c2ccn3ncc(-c4ccsc4)c3n2)ccc1F` [compound 26], the IC50 is less than 10 nM.

Turning to `C[C@@H](Cn1cnnn1)Oc1cc(-c2ccn3ncc(-c4cncs4)c3n2)ccc1F` [compound 27], the IC50 is less than 10 nM.

`C[C@@H](Cn1cnnn1)Oc1cc(-c2ccn3ncc(-c4ccccc4C#N)c3n2)ccc1F` [compound 28]: the IC50 was less than 10 nM.

For the compound `C[C@@H](Cn1cnnn1)Oc1cc(-c2ccn3ncc(-c4cccc(C#N)c4)c3n2)ccc1F` [compound 29], the IC50 is less than 10 nM.

As for `COc1ccc(-c2cnn3ccc(-c4ccc(F)c(O[C@@H](C)Cn5cnnn5)c4)nc23)cc1` [compound 30], the IC50 was less than 10 nM.

Turning to `COc1ccccc1-c1cnn2ccc(-c3ccc(F)c(O[C@@H](C)Cn4cnnn4)c3)nc12` [compound 31], the IC50 is less than 10 nM.

Turning to `COc1cccc(-c2cnn3ccc(-c4ccc(F)c(O[C@@H](C)Cn5cnnn5)c4)nc23)c1` [compound 32], the IC50 was less than 10 nM.

`C[C@@H](Cn1cnnn1)Oc1cc(-c2ccn3ncc(-c4cccc(OCC#N)c4)c3n2)ccc1F` [compound 33]: the IC50 is less than 10 nM.

With `CNC(=O)c1ccccc1-c1cnn2ccc(-c3ccc(F)c(O[C@@H](C)Cn4cnnn4)c3)nc12` [compound 34], the IC50 was greater than 100 nM.

As to `CNC(=O)c1cccc(-c2cnn3ccc(-c4ccc(F)c(O[C@@H](C)Cn5cnnn5)c4)nc23)c1` [compound 35], the IC50 was less than 10 nM.

Take `CC(=O)Nc1cccc(-c2cnn3ccc(-c4ccc(F)c(O[C@@H](C)Cn5cnnn5)c4)nc23)c1` [compound 36]: the IC50 is less than 10 nM.

In the case of `CNC(=O)c1ccc(-c2cnn3ccc(-c4ccc(F)c(O[C@@H](C)Cn5cnnn5)c4)nc23)cc1` [compound 37], the IC50 was less than 10 nM.

`CC(=O)Nc1ccc(-c2cnn3ccc(-c4ccc(F)c(O[C@@H](C)Cn5cnnn5)c4)nc23)cc1` [compound 38]: the IC50 was less than 10 nM.

Consider `CC(=O)Nc1ccccc1-c1cnn2ccc(-c3ccc(F)c(O[C@@H](C)Cn4cnnn4)c3)nc12` [compound 39], for which the IC50 was greater than 100 nM.

On to `C[C@@H](Cn1cnnn1)Oc1cc(-c2ccn3ncc(-c4cccc(CN(C)C)c4)c3n2)ccc1F` [compound 40], for which the IC50 was less than 10 nM.

`C[C@@H](Cn1cnnn1)Oc1cc(-c2ccn3ncc(-c4ccc(CN(C)C)cc4)c3n2)ccc1F` [compound 41]: the IC50 is less than 10 nM.

On to `CC(=O)N1CCN(c2ccc(-c3cnn4ccc(-c5ccc(F)c(O[C@@H](C)Cn6cnnn6)c5)nc34)cc2)CC1` [compound 42], for which the IC50 was in the range of 10 to 100 nM.

With `COCCOc1ccccc1-c1cnn2ccc(-c3ccc(F)c(O[C@@H](C)Cn4cnnn4)c3)nc12` [compound 43], the IC50 is less than 10 nM.

Regarding `COCCOc1ccc(-c2cnn3ccc(-c4ccc(F)c(O[C@@H](C)Cn5cnnn5)c4)nc23)cc1` [compound 44], the IC50 lay in the range of 10 to 100 nM.

`C[C@@H](Cn1cnnn1)Oc1cc(-c2ccn3ncc(-c4ccccc4OC(F)(F)F)c3n2)ccc1F` [compound 45]: the IC50 fell in the range of 10 to 100 nM.

In the case of `C[C@@H](Cn1cnnn1)Oc1cc(-c2ccn3ncc(-c4cccc(OC(F)(F)F)c4)c3n2)ccc1F` [compound 46], the IC50 lay in the range of 10 to 100 nM.

Consider `C[C@@H](Cn1cnnn1)Oc1cc(-c2ccn3ncc(-c4cccc(N5CCOCC5)c4)c3n2)ccc1F` [compound 47], for which the IC50 fell in the range of 10 to 100 nM.

In the case of `C[C@@H](Cn1cnnn1)Oc1cc(-c2ccn3ncc(-c4ccccc4N4CCOCC4)c3n2)ccc1F` [compound 48], the IC50 was 10 to 100 nM.

With `C[C@@H](Cn1cnnn1)Oc1cc(-c2ccn3ncc(-c4ccc(N5CCOCC5)cc4)c3n2)ccc1F` [compound 49], the IC50 was 10 to 100 nM.

As to `C[C@@H](Cn1cnnn1)Oc1cc(-c2ccn3ncc(-c4cccc(F)c4)c3n2)ccc1F` [compound 50], the IC50 was less than 10 nM.

With `C[C@@H](Cn1cnnn1)Oc1cc(-c2ccn3ncc(-c4ccc(F)cc4)c3n2)ccc1F` [compound 51], the IC50 is less than 10 nM.

`C[C@@H](Cn1cnnn1)Oc1cc(-c2ccn3ncc(-c4ccccc4F)c3n2)ccc1F` [compound 52]: the IC50 was less than 10 nM.

`CC(C)c1ccc(-c2cnn3ccc(-c4ccc(F)c(O[C@@H](C)Cn5cnnn5)c4)nc23)cc1` [compound 53]: the IC50 was greater than 100 nM.

For `C[C@@H](Cn1cnnn1)Oc1cc(-c2ccn3ncc(-c4cccc(OCC5CC5)c4)c3n2)ccc1F` [compound 54], the IC50 lay within 10 to 100 nM.

Turning to `C[C@@H](Cn1cnnn1)Oc1cc(-c2ccn3ncc(-c4ccccc4N4CCNCC4)c3n2)ccc1F` [compound 55], the IC50 is greater than 100 nM.

Regarding `C[C@@H](Cn1cnnn1)Oc1cc(-c2ccn3ncc(-c4ccc(N5CCNCC5)cc4)c3n2)ccc1F` [compound 56], the IC50 was less than 10 nM.

Turning to `C[C@@H](Cn1nnc(N)n1)Oc1cccc(-c2ccn3ncc(-c4cccs4)c3n2)c1` [compound 58], the IC50 was greater than 100 nM.

For `C[C@@H](Cn1nnnc1N)Oc1cccc(-c2ccn3ncc(-c4cccs4)c3n2)c1` [compound 59], the IC50 was less than 10 nM.

Regarding `C[C@@H](Cn1cnnn1)Oc1cc(-c2ccc3ncc(-c4cccs4)n3n2)ccc1F` [compound 60], the IC50 was less than 10 nM.

On to `C[C@@H](Cn1cnnn1)Oc1cc(-c2ccc3ncn(-c4cccc(C(=O)O)c4)c3n2)ccc1F` [compound 62], for which the IC50 lay in the range of 10 to 100 nM.

On to `C[C@@H](Cn1cnnn1)Oc1cccc(-c2ccn3ncc(-c4cccc(C(=O)NCC5CC5)c4)c3n2)c1` [compound 63], for which the IC50 was less than 10 nM.

Turning to `CC(C)CCNC(=O)c1cccc(-c2cnn3ccc(-c4cccc(O[C@@H](C)Cn5cnnn5)c4)nc23)c1` [compound 64], the IC50 was less than 10 nM.

With `C[C@@H](Cn1cnnn1)Oc1cccc(-c2ccn3ncc(-c4cccc(C(=O)Nc5cn[nH]c5)c4)c3n2)c1` [compound 65], the IC50 was less than 10 nM.

For the compound `C[C@@H](Cn1cnnn1)Oc1cccc(-c2ccn3ncc(-c4cccc(C(=O)NCCCN5CC(O)C5)c4)c3n2)c1` [compound 66], the IC50 was less than 10 nM.

For `C[C@@H](Cn1cnnn1)Oc1cccc(-c2ccn3ncc(-c4cccc(C(=O)NCCN5CCOCC5)c4)c3n2)c1` [compound 67], the IC50 is less than 10 nM.

For the compound `CCN(CC)C(=O)CNC(=O)c1cccc(-c2cnn3ccc(-c4cccc(O[C@@H](C)Cn5cnnn5)c4)nc23)c1` [compound 68], the IC50 is less than 10 nM.

For the compound `CCN(CC)CCCNC(=O)c1cccc(-c2cnn3ccc(-c4cccc(O[C@@H](C)Cn5cnnn5)c4)nc23)c1` [compound 69], the IC50 was less than 10 nM.
